Assay results reported in ChEMBL document CHEMBL1156964, “Bioconjugates of curcumin display improved protection against glutathione depletion mediated oxidative stress in a dopaminergic neuronal cell line: Implications for Parkinson's disease” (2010).
Active and inactive are the calls of the source. No cut-off for these calls is given here.

Legend:
[1] = Increase in GSH level in rat N27 cells at 0.5 uM after 24 hrs; assay type: functional
[2] = Neuroprotective effect in rat N27 cells assessed as Inhibition of BSO-induced GSH depletion at 0.5 uM after 24 hrs by DTNB recycling method relative to control; assay type: functional; details: N27, 24 h
[3] = Neuroprotective effect against rat N27 cells assessed as reduction of BSO-induced increase in MDA level at 0.5 uM after 24 hrs by thiobarbituric acid reaction method relative to control; assay type: functional; set-up: scale not given: the % may be the effect or the level left
[4] = Neuroprotective effect against rat N27 cells assessed as reduction of BSO-induced increase in MDA level at 0.5 uM by thiobarbituric acid reaction method after 24 hrs BSO withdrawal relative to control; assay type: functional; set-up: scale not given: the % may be the effect or the level left
N27 [5] = assay: Neuroprotective effect against rat N27 cells assessed as reduction of BSO-induced reduction of GST activity at 0.5 uM relative to control; assay type: functional, cell-based
[6] = Neuroprotective effect against rat N27 cells assessed as reduction of BSO-induced increase in hydrogen peroxide level at 0.5 uM after 24 hrs using FOX1 reagent; assay type: functional; set-up: scale not given: the % may be the effect or the level left
[7] = Neuroprotective effect against rat N27 cells assessed as reduction of BSO-induced increase in reactive oxygen species level at 0.5 uM after 24 hrs by DCFDA fluorescence assay relative to control; assay type: functional; set-up: scale not given: the % may be the effect or the level left
[8] = Neuroprotective effect against rat N27 cells assessed as reduction of BSO-induced increase in reactive oxygen species level at 0.5 uM treated 24 hrs after BSO withdrawal by DCFDA fluorescence assay relative to control; assay type: functional; set-up: scale not given: the % may be the effect or the level left
N27 [9] = assay: Increase in ROS level in rat N27 cells at 0.5 uM by DCFDA fluorescence assay; assay type: functional, cell-based
N27 [10] = assay: Neuroprotective effect against rat N27 cells assessed as reduction of BSO-induced reduction of GST activity at 0.5 uM treated 24 hrs after BSO withdrawal relative to control; assay type: functional, cell-based
[11] = Neuroprotective effect against rat N27 cells assessed as reduction of BSO-induced increase in hydrogen peroxide level at 0.5 uM treated 24 hrs after BSO withdrawal using FOX1 reagent relative to control; assay type: functional; set-up: scale not given: the % may be the effect or the level left

Compound	Activity [1] [%]	inhibition at 0.5 µM [2] [%]	Activity [3] [%]	Activity [4] [%]	Activity (N27 [5])	Activity [6] [%]	Activity [7] [%]	Activity [8] [%]	Activity (N27 [9])	Activity (N27 [10])	Activity [11] [%]
COc1cc(/C=C/C(=O)CC(=O)/C=C/c2ccc(OC(=O)/C=C/C=C/c3ccc(O)c(O)c3)c(OC)c2)ccc1OC(=O)/C=C/C=C/c1ccc(O)c(O)c1	25	78	50	75	Active	50	65	55	inactive	Active	–
COc1cc(/C=C/C(=O)CC(=O)/C=C/c2ccc(O)c(OC)c2)ccc1O [CURCUMIN]	30	78	40	65	Active	50	45	50	inactive	Active	–
COc1cc(/C=C/C(=O)CC(=O)/C=C/c2ccc(OC(=O)[C@@H](N)C(C)C)c(OC)c2)ccc1OC(=O)[C@@H](N)C(C)C	50	72	30	80	Active	–	60	70	inactive	Active	80
COc1cc(/C=C/C(=O)CC(=O)/C=C/c2ccc(OC(=O)[C@@H](N)CCC(=O)O)c(OC)c2)ccc1OC(=O)[C@@H](N)CCC(=O)O	64	83	50	90	Active	50	90	80	inactive	Active	–
